Results on three molecules are retold here after PMC2792720, “Binding of NIR-conPK and NIR-6T to Astrocytomas and Microglial Cells: Evidence for a Protein Related to TSPO” (PLoS ONE, 2009).

For this experiment, the target named is T1, TSPO (Mus musculus, UniProt P50637).
T1 construct: mitochondrial-enriched membranes from DBT cells were prepared by lysing cells with ice-cold homogenization buffer; endogenous in cells; host or cells: DBT mouse astrocytoma cells (mitochondrial-enriched membranes / homogenates), untreated or cytokine-treated
Kind of experiment: Filtration radioligand binding assay, [^3H]-PK 11195 binding to DBT cell homogenates. More on the design: Bmax: unit not given here. As for the experimental part: Enriched membranes were prepared according to [28]. Briefly, mitochondrial-enriched membranes from DBT cells were prepared by lysing cells with ice-cold homogenization buffer (50 mM Tris, 1 mM EDTA and 3 mM MgCl2), followed by dounce homogenization (five gentle strokes). Homogenates were centrifuged (40,000×g, 15 min, 4°C) and cell pellet resuspended in 0.5 ml homogenization buffer, re-homogenized by dounce (five gentle strokes while on ice) and centrifuged again (40,000×g, 15 min, 4°C). Cell pellets were stored at −80°C until further use. Radioligand binding assays were performed in silanized glass test tubes (Kimble Glass Inc.). The following components were added: 50 µl of non-radiolabeled DAA1106 or PK 11195, 50 µl of [N-methyl-^3H]-PK 11195 (PerkinElmer, Boston MA; 250 µCi, 84.8 Ci/mmol) and 100 µl of protein (50 µg, which started the incubation) for a total volume of 200 µl in binding buffer (50 mM Tris, 1 mM EDTA, 3 mM MgCl2 and 0.1% BSA), all of which was placed in a water bath (30°C) with mild agitation for 1 hr. Incubation was stopped by rapid filtration and rinsing with ice-cold binding buffer, using the Brandel harvester (Gaithersburg, MD) and Whatman GFB filter paper (Brandel, Gaithersburg MD). Filters were then transferred to 7 ml glass scintillation vials (VWR, West Chester PA). Five ml of Ecoscint XR scintillation fluid (National Diagnostics, Atlanta, GA) was added, followed by 10 sec vortexing and ∼18 hrs incubation at room temperature prior to determining the radioactivity with a scintillation counter (PerkinElmer, Boston MA).
Data are expressed as n = number of determinations (three per independent experiment). Statistical analysis, Kd and Ki values were calculated using non-linear regression with a one binding site hyperbola, where X is the concentration of the ligand, Y is specific binding and Bmax and Kd are determined using this equation: Y = Bmax X/Kd+X calculated by GraphPad Prism 4.

With `CCC(C)N(C)C(=O)c1cc2ccccc2c(-c2ccccc2Cl)n1` (centres unmarked) [PK 11195], under “DBT cell homogenates, read-out: EC50, competition for [^3H]-PK 11195 binding”, the concentration for a half-maximal effect (EC50) (commonly the concentration at which the effect is half-maximal) amounted to 93 nM.
Regarding `[3H]CN(C(=O)c1cc2ccccc2c(-c2ccccc2Cl)n1)C(C)CC` (centres unmarked) [[^3H]-PK 11195, [N-methyl-^3H]-PK 11195], the “amount of TSPO detected with [^3H]-PK 11195 (Bmax)” value (DBT cell homogenates, untreated cells) is recorded as 14 pmol of TSPO per gram of protein. Also, the Bmax is, setting by setting: (homogenates of DBT cells treated with IFNγ (100 Ui/ml), 18–24 hrs) 17.0+/−2.6; (homogenates of DBT cells treated with IFNγ+TNFα, 18–24 hrs) 17.6+/−2.4; (homogenates of DBT cells treated with TGFβ2 (1 ng/ml), 18–24 hrs) 22.1+/−4.7; (homogenates of DBT cells treated with TNFα (5 ng/ml), 18–24 hrs) 17.4+/−2.9; (homogenates of DBT cells, Control (vehicle, 18–24 hrs)) 14.0+/−1.1.
Regarding `COc1ccc(OC)c(CN(C(C)=O)c2cc(F)ccc2Oc2ccccc2)c1` [DAA1106], the Ki (as a rule, a measure of affinity in units of concentration, obtained from inhibition or displacement) (DBT cell homogenates, read-out: Ki, competition for [^3H]-PK 11195 binding) turned out to be 0.2 nM.
